This note sets out measurements from PubChem BioAssay (NCI).

By TGI is commonly meant the concentration at which net growth stops. Low readings indicate greater sensitivity of the cells, high ones lower sensitivity of the cells. The term GI50 denotes the concentration that inhibits growth by half.

Among the test systems are 786-0 renal; CCRF-CEM leukemia; M14 melanoma; NCI-H226 lung; NCI-H23 lung; SW-620 colon; UACC-257 melanoma; UO-31 renal; PC-3 prostate; T-47D breast; MDA-N.
Common to all, as to experiment: DTP human tumour cell line panel, 48 h

Values after ≈ are worked out from the molar mass of the structure shown.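 Protocol summary: plate cells (96-well), add compound at 5 concentrations, incubate 48 h, interpolate endpoints linearly. At the GI50, growth is halved. Definition used: TGI = concentration required for complete inhibition of growth.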

Take `N#CN/C(N)=N/C/N=C(\N)NC#N`: the TGI in the experiment with 786-0 renal is 60.8 µM; in the experiment on CCRF-CEM leukemia, greater than 100 µM; in the experiment on M14 melanoma, greater than 100 µM; in the experiment on NCI-H226 lung, greater than 100 µM; in the experiment on NCI-H23 lung it was greater than 100 µM; in the experiment with SW-620 colon it was 36 µM. The TGI in the experiment with UACC-257 melanoma and in the experiment with UO-31 renal was greater than 100 µM in each case.
For `NC1=C(NC(=O)Cc2ccccc2F)C(=O)c2ccccc2C1=O`, the TGI in the experiment with 786-0 renal was 98.2 µM; in the experiment with CCRF-CEM leukemia, greater than 100 µM; in the experiment on M14 melanoma, greater than 100 µM; with NCI-H226 lung, greater than 100 µM; in the experiment on NCI-H23 lung, greater than 100 µM; in the experiment on SW-620 colon it was greater than 100 µM. Besides, the concentration for total growth inhibition (TGI) in the experiment with UACC-257 melanoma and with UO-31 renal was greater than 100 µM each time.
For `CC1=Nc2c(ccc3c2C(=O)c2ccccc2C3=O)NC(c2cccc3c2CCC3)C1` (stereo not given), the TGI with 786-0 renal, with CCRF-CEM leukemia, in the experiment with M14 melanoma, in the experiment with NCI-H226 lung, with NCI-H23 lung and in the experiment with SW-620 colon was greater than 100 µM throughout. The total growth inhibition concentration (TGI) in the experiment with UACC-257 melanoma and with UO-31 renal was greater than 100 µM throughout.
Consider `CC1=NC2=Nc3nc(C)cc[n+]3CN2C=C1`, for which the TGI in the experiment on 786-0 renal, with M14 melanoma, with NCI-H226 lung, with NCI-H23 lung, in the experiment with PC-3 prostate and in the experiment with SW-620 colon was greater than 100 µM each time. In addition, the TGI in the experiment on T-47D breast, in the experiment with UACC-257 melanoma and in the experiment with UO-31 renal was greater than 100 µM in each case.
As to `CS(=O)(=O)OCCN(CCOS(C)(=O)=O)c1ccc(C=Nc2cccc(Cl)c2)cc1`, the TGI with 786-0 renal was greater than 100 µM; in the experiment on CCRF-CEM leukemia, greater than 100 µM; in the experiment with M14 melanoma, 55.5 µM; in the experiment on NCI-H226 lung it was 11 µM; in the experiment on NCI-H23 lung, 10.6 µM; in the experiment on PC-3 prostate, greater than 100 µM. Moreover, the TGI in the experiment on SW-620 colon is greater than 100 µM; in the experiment with T-47D breast, greater than 100 µM; with UACC-257 melanoma, 21.1 µM; in the experiment on UO-31 renal, greater than 100 µM.
For the compound `CC(=O)OC12C3C4C1C1C2C3C41OC(C)=O` (stereo not given), the TGI in the experiment with 786-0 renal, with CCRF-CEM leukemia, in the experiment on M14 melanoma, in the experiment on NCI-H226 lung, with NCI-H23 lung and with PC-3 prostate was greater than 100 µM each time. The concentration for total growth inhibition (TGI) in the experiment on SW-620 colon, with T-47D breast, in the experiment on UACC-257 melanoma and with UO-31 renal was greater than 100 µM throughout.
In the case of `CC(=O)c1c(C)nc(SSc2nc(C)c(C(C)=O)c(-c3ccc(Cl)cc3)c2C#N)c(C#N)c1-c1ccc(Cl)cc1`, the GI50 with CCRF-CEM leukemia was greater than 150 µg/mL; in the experiment with M14 melanoma it was 81.5 µg/mL (≈ 135 µM); in the experiment on NCI-H23 lung, 67.4 µg/mL (≈ 112 µM); in the experiment with PC-3 prostate it was greater than 150 µg/mL; in the experiment on SW-620 colon, 69.4 µg/mL (≈ 115 µM); with T-47D breast, 36.1 µg/mL (≈ 59.8 µM). In addition, the GI50 in the experiment with UACC-257 melanoma was greater than 150 µg/mL; in the experiment on UO-31 renal, 82 µg/mL (≈ 136 µM). Besides, the TGI in the experiment on CCRF-CEM leukemia, in the experiment on M14 melanoma, in the experiment on NCI-H23 lung, in the experiment on PC-3 prostate, with SW-620 colon and in the experiment on T-47D breast was greater than 150 µg/mL each time. The TGI in the experiment with UACC-257 melanoma and in the experiment on UO-31 renal was greater than 150 µg/mL in each case.
On to `CC(=O)OCC1OC(n2cc(F)c(=O)[nH]c2=O)C(NC(=O)OCc2ccccc2)C(OC(C)=O)C1OC(C)=O` (stereo not given), for which the TGI in the experiment with CCRF-CEM leukemia, with NCI-H226 lung, in the experiment with NCI-H23 lung, in the experiment with SW-620 colon, with UACC-257 melanoma and in the experiment with UO-31 renal was greater than 100 µM each time.
Consider `c1ccc(C(NCC2CCO2)(c2ccccc2)c2ccccc2)cc1` (stereo not given), for which the TGI was 41.6 µM in the experiment on 786-0 renal; greater than 100 µM in the experiment with CCRF-CEM leukemia; 32.1 µM in the experiment on M14 melanoma; 54.5 µM in the experiment with MDA-N; 26.6 µM in the experiment with NCI-H226 lung; 30.9 µM in the experiment on NCI-H23 lung. In addition, the TGI worked out at 31.6 µM in the experiment with PC-3 prostate, 44.4 µM in the experiment on SW-620 colon, 39.5 µM with UACC-257 melanoma and 25.3 µM in the experiment with UO-31 renal.
Take `CC(C)(C)OC(=O)N(CCCCNC(=O)OCc1ccccc1)CCCNC(=O)OCc1ccccc1`: the concentration for total growth inhibition (TGI) in the experiment with 786-0 renal, in the experiment with CCRF-CEM leukemia, in the experiment on M14 melanoma, with NCI-H226 lung, in the experiment on NCI-H23 lung and in the experiment on PC-3 prostate was greater than 100 µM throughout. Also, the TGI in the experiment with SW-620 colon, in the experiment with T-47D breast and with UACC-257 melanoma was greater than 100 µM in each case.
`C=C1C(=O)O[C@H]2C[C@@]3(COC(C)=O)C=COC=C(COC(=O)C(C)C)C3CC12` (stereo not given in full): the TGI is greater than 100 µM in the experiment with 786-0 renal; 63.8 µM in the experiment on CCRF-CEM leukemia; greater than 100 µM with MDA-N; greater than 100 µM with NCI-H226 lung; greater than 100 µM in the experiment with NCI-H23 lung; greater than 100 µM in the experiment with PC-3 prostate. Besides, the TGI with SW-620 colon, in the experiment with UACC-257 melanoma and in the experiment with UO-31 renal was greater than 100 µM in each case.
Turning to `CC1=C(C(=O)CC(=O)C(=O)Nc2cc(C)ccc2C)Sc2ccccc2N1`, the concentration for total growth inhibition (TGI) in the experiment on 786-0 renal, with CCRF-CEM leukemia, in the experiment on M14 melanoma, in the experiment on NCI-H226 lung, with NCI-H23 lung and in the experiment on SW-620 colon was greater than 100 µM each time. The TGI with UACC-257 melanoma and in the experiment on UO-31 renal was greater than 100 µM in each case.
Consider `CC(C)CCC[C@@H](C)[C@H]1CC[C@H]2[C@@H]3CC[C@H]4C[C@@H](CCC=C(c5cc(Cl)c(O)c(C(=O)O)c5)c5cc(Cl)c(O)c(C(=O)O)c5)CC[C@]4(C)[C@H]3CC[C@]12C`, for which the TGI with 786-0 renal, in the experiment with CCRF-CEM leukemia, with M14 melanoma, in the experiment on NCI-H226 lung, with NCI-H23 lung and in the experiment on PC-3 prostate was greater than 100 µM in each case. The TGI with SW-620 colon, in the experiment with T-47D breast, in the experiment with UACC-257 melanoma and in the experiment on UO-31 renal was greater than 100 µM throughout.
For the compound `Cc1nc(CC#N)n[nH]1`, the TGI with 786-0 renal, with CCRF-CEM leukemia, in the experiment with M14 melanoma, in the experiment with MDA-N, in the experiment on NCI-H23 lung and with PC-3 prostate was greater than 100 µM throughout. The TGI with SW-620 colon, in the experiment with UACC-257 melanoma and with UO-31 renal was greater than 100 µM throughout.
